From PubChem BioAssay (NCI)
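At the GI50, growth is halved. TGI: total growth inhibition.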

How the values were obtained:
Test in all cases: inhibition of tumour cell growth, NCI panel, 384-well format
786-0 renal = test system: 786-0 renal
A498 renal = test system: A498 renal
A549 NSCLC = test system: A549 NSCLC
ACHN renal = test system: ACHN renal
BT-549 breast = test system: BT-549 breast
CAKI-1 renal = test system: CAKI-1 renal
CCRF-CEM leukemia = test system: CCRF-CEM leukemia
COLO 205 colon = test system: COLO 205 colon
DU-145 prostate = test system: DU-145 prostate
EKVX NSCLC = test system: EKVX NSCLC
HCC-2998 colon = test system: HCC-2998 colon
HCT-15 colon = test system: HCT-15 colon
HL-60(TB) leukemia = test system: HL-60(TB) leukemia
HOP-62 NSCLC = test system: HOP-62 NSCLC
HOP-92 NSCLC = test system: HOP-92 NSCLC
HS 578T breast = test system: HS 578T breast
HT29 colon = test system: HT29 colon
IGROV1 ovarian = test system: IGROV1 ovarian
K-562 leukemia = test system: K-562 leukemia
KM12 colon = test system: KM12 colon
LOX IMVI melanoma = test system: LOX IMVI melanoma
M14 melanoma = test system: M14 melanoma
MALME-3M melanoma = test system: MALME-3M melanoma
MCF7 breast = test system: MCF7 breast
MDA-MB-231 breast = test system: MDA-MB-231 breast
MDA-MB-435 melanoma = test system: MDA-MB-435 melanoma
MDA-MB-468 breast = test system: MDA-MB-468 breast
MOLT-4 leukemia = test system: MOLT-4 leukemia

CN(C)CCNC(=O)NC[C@H]1CC[C@@H]2[C@H](O1)c1cc(C(F)(F)F)ccc1N[C@H]2c1ccccc1
GI50 ([…]-0 renal): 528 nM | TGI (786-0 renal): 19 µM | GI50 (A498 renal): 88.3 nM | TGI (A498 renal): 18.7 µM | GI50 (A549 NSCLC): 124 nM | TGI (A549 NSCLC): 16.9 µM | GI50 (ACHN renal): 11.3 µM | TGI (ACHN renal): 23.5 µM | GI50 (BT-549 breast): 113 nM | TGI (BT-549 breast): 10.4 µM | GI50 (CAKI-1 renal): 223 nM | TGI (CAKI-1 renal): 26.3 µM | GI50 (CCRF-CEM leukemia): 28.9 nM | TGI (CCRF-CEM leukemia): 57 nM | GI50 (COLO 205 colon): 39.4 nM | TGI (COLO 205 colon): 156 nM | GI50 (DU-145 prostate): 279 nM | TGI (DU-145 prostate): 4.69 µM | GI50 (EKVX NSCLC): 261 nM | TGI (EKVX NSCLC): 16.3 µM | GI50 (HCC-2998 colon): 93.2 nM | TGI (HCC-2998 colon): 11.7 µM | GI50 (HCT-15 colon): 303 nM | TGI (HCT-15 colon): 12 µM | GI50 (HL-60(TB) leukemia): 32.5 nM | TGI (HL-60(TB) leukemia): 82.4 nM | GI50 (HOP-62 NSCLC): 618 nM | TGI (HOP-62 NSCLC): 18.2 µM | GI50 (HOP-92 NSCLC): 206 nM | TGI (HOP-92 NSCLC): 16.1 µM | GI50 (HS 578T breast): 36 nM | TGI (HS 578T breast): 131 nM | GI50 (HT29 colon): 168 nM | TGI (HT29 colon): 443 nM | GI50 (IGROV1 ovarian): 10.5 µM | TGI (IGROV1 ovarian): 27 µM | GI50 (K-562 leukemia): 53.3 nM | TGI (K-562 leukemia): 257 nM | GI50 (KM12 colon): 128 nM | TGI (KM12 colon): 11.8 µM | GI50 (LOX IMVI melanoma): 1170 nM | TGI (LOX IMVI melanoma): 17.6 µM | GI50 (M14 melanoma): 31.4 nM | TGI (M14 melanoma): 92.3 nM | GI50 (MALME-3M melanoma): 387 nM | TGI (MALME-3M melanoma): 15 µM | GI50 (MCF7 breast): 64.9 nM | TGI (MCF7 breast): 14 µM | GI50 (MDA-MB-231 breast): 235 nM | TGI (MDA-MB-231 breast): 13.8 µM | GI50 (MDA-MB-435 melanoma): 21.8 nM | TGI (MDA-MB-435 melanoma): 45.8 nM | GI50 (MDA-MB-468 breast): 29.6 nM | TGI (MDA-MB-468 breast): 64.7 nM | GI50 (MOLT-4 leukemia): 69.6 nM | TGI (MOLT-4 leukemia): 193 nM
